Patent US8592426B2, “Aryl-benzocycloalkyl amide derivatives” (Hoffmann—La Roche Inc., priority 2011, dated 2013)

Legend:
[1] = biological target: T1, Bradykinin-1 receptor (Homo sapiens (Human), UniProt P46663); assay: Receptor binding assay (B1R Binding Assay), [3H]-Kallidin (Des Arg10, Leu9) displacement; conditions: membranes from CHO-K1 cells overexpressing Bradykinin-1 receptor; 6 nM radioligand
Experimental: Binding assays were done with membranes from CHO-K1 cells overexpressing Bradykinin-1 receptor.
To determine non-specific binding 10 μM Lys-(Des-Arg^9)-Bradykinin (Bachem) was added. Membranes were harvested through GF/B (glass fiber filter; PerkinElmer) plates, equilibrated with 0.5% polyethylenimine, air dried at 50° C. for 2 h. Radioactivity was determined by counting in a topcounter (NXT Packard).

[2] = biological target: T1, Bradykinin-1 receptor; assay: Calcium mobilization assay (FLIPR, Fluo-4) in GeneBLAzer Bradykinin (B1)-NFAT-bla CHO-K1 cells; assay type: cell-based; conditions: antagonist activity; CHO-K1 cells stably overexpressing the human bradykinin 1 receptor; read-out: Ca mobilization Assay IC50
Experimental: Calcium Mobilization Assay
GeneBLAzer® Bradykinin (B1)-NFAT-bla CHO-K1 cells (from Invitrogen) stably overexpressing the human bradykinin 1 receptor were cultured in DMEM (high glucose) supplemented with 10% dialysed FBS, 1% NEAA (non essential amino acids) 1% penicillin/streptomycin, 1% G418 and 0.1 mg/ml zeocin.
For the assay cells were grown overnight in 384-well black clear flat bottom polystyrene plates (Costar) at 37° C. at 5% CO2. After washing with DMEM, 20 mM Hepes, 2.5 mM probenecid, 0.1% BSA (DMEM assay buffer) cells were loaded with 4 μM Fluo-4 in the same DMEM assay buffer for 2 hours at 30° C. Excess dye was removed and cells were washed with DMEM assay buffer. 384-well compound plates were prepared with DMEM assay buffer/0.5% DMSO with or without various concentrations of test compounds. Usually compounds were tested for agonist and antagonist activity.
Test compounds were added to the assay plate and agonist activity was monitored as fluorescence for 80 seconds with a FLIPR (488 nm excitation; 510-570 nm emission; Molecular Devices). After 20-30 min. of incubation at 30° C., 20 nM […] (R&D; Roche) was added and fluorescence was monitored again for 80 seconds. Increases in intracellular calcium are reported as maximum fluorescence after agonist exposure minus basal fluorescence before exposure.

T1 sequence (P46663 whole entry): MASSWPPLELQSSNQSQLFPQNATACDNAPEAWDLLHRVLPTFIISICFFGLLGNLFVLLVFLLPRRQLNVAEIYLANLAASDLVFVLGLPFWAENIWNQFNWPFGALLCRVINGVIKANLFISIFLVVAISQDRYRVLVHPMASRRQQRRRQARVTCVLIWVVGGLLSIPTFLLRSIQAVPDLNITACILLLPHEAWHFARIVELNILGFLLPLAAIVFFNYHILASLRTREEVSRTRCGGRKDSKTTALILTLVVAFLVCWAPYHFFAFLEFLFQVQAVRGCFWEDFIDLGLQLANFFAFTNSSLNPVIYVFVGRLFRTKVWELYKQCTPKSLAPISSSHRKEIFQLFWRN

| Structure (SMILES) | Ki [1] [nM] | IC50 [2] [nM] |
| --- | --- | --- |
| Cc1nc(-c2c(F)cc(Cl)cc2-c2ccc3c(c2)CC[C@@H]3NC(=O)C2(NC(=O)C(F)(F)F)CC2)no1 [Example 5, 1-(2,2,2-Trifluoro-acetylamino)-cyclopropanecarboxylic acid{(S)-5-[5-chloro-3-fluoro-2-(5-methyl-[1,2,4]oxadiazol-3-yl)-phenyl]-indan-1-yl}-amide] | 6.2 | 0.6 |
| COC(=O)c1c(Cl)cccc1-c1ccc2c(c1)CC[C@@H]2NC(=O)C1(NC(=O)C(F)(F)F)COC1 [Example 6, 2-Chloro-6-((S)-1-{[3-(2,2,2-trifluoro-acetylamino)-oxetane-3-carbonyl]-amino}-indan-5-yl)-benzoic acid methyl ester] | 381 | 455 |
| Cc1nc(-c2c(F)cc(Cl)cc2-c2ccc3c(c2)CC[C@@H]3NC(=O)C2(NC(=O)C(F)(F)F)COC2)no1 [Example 7, 3-(2,2,2-Trifluoro-acetylamino)-oxetane-3-carboxylic acid{(S)-5-[5-chloro-3-fluoro-2-(5-methyl-[1,2,4]oxadiazol-3-yl)-phenyl]-indan-1-yl}-amide] | 37.4 | 28.6 |
| Cn1nnc(-c2c(F)cc(Cl)cc2-c2ccc3c(c2)CC[C@@H]3NC(=O)C2(NC(=O)C(F)(F)F)COC2)n1 [Example 8, 3-(2,2,2-Trifluoro-acetylamino)-oxetane-3-carboxylic acid{(S)-5-[5-chloro-3-fluoro-2-(2-methyl-2H-tetrazol-5-yl)-phenyl]-indan-1-yl}-amide] | 30.3 | 24.4 |
| Cc1nc(-c2c(F)cc(Cl)cc2-c2ccc3c(c2)CC[C@@H]3NC(=O)C2(NC(=O)OC(C)(C)C)CC2)no1 [Example 23, (1-{(S)-5-[5-Chloro-3-fluoro-2-(5-methyl-[1,2,4]oxadiazol-3-yl)-phenyl]-indan-1-ylcarbamoyl}-cyclopropyl)-carbamic acid tert-butyl ester] | 669 | 332 |

Next, values leading:

| Ki [1] [nM] | IC50 [2] [nM] | Structure (SMILES) |
| --- | --- | --- |
| 7.1 | 0.5 | Cn1nnc(-c2c(F)cc(Cl)cc2-c2ccc3c(c2)SCC3NC(=O)C2(NC(=O)c3ccno3)CC2)n1 (racemic) [Example 64, Isoxazole-5-carboxylic acid(1-{(rac)-6-[5-chloro-3-fluoro-2-(2-methyl-2H-tetrazol-5-yl)-phenyl]-2,3-dihydro-benzo[b]thiophen-3-ylcarbamoyl}-cyclopropyl)-amide] |
| 4.4 | 0.2 | COc1cc(C(=O)NC2(C(=O)NC3CSc4cc(-c5cc(Cl)cc(F)c5-c5nnn(C)n5)ccc43)CC2)on1 (racemic) [Example 65, 3-Methoxy-isoxazole-5-carboxylic acid(1-{(rac)-6-[5-chloro-3-fluoro-2-(2-methyl-2H-tetrazol-5-yl)-phenyl]-2,3-dihydro-benzo[b]thiophen-3-ylcarbamoyl}-cyclopropyl)-amide] |
| 130 | 35.2 | Cc1nc(-c2c(F)cc(Cl)cc2-c2cnc3c(c2)CCC3NC(=O)C2(NC(=O)c3ccnnc3)CC2)no1 (single isomer, unassigned) [Example 40, Pyridazine-4-carboxylic acid(1-{(R or S) 3-[5-chloro-3-fluoro-2-(5-methyl-[1,2,4]oxadiazol-3-yl)-phenyl]-6,7-dihydro-5H-[1]pyrindin-7-ylcarbamoyl}-cyclopropyl)-amide] |
| 4 | 0.2 | Cc1nc(-c2c(F)cc(Cl)cc2-c2cnc3c(c2)CCC3NC(=O)C2(NC(=O)c3ccnnc3)CC2)no1 (single isomer, unassigned) [Example 41, Pyridazine-4-carboxylic acid(1-{(S or R) 3-[5-chloro-3-fluoro-2-(5-methyl-[1,2,4]oxadiazol-3-yl)-phenyl]-6,7-dihydro-5H-[1]pyrindin-7-ylcarbamoyl}-cyclopropyl)-amide] |
| 36.4 | 5 | Cc1nc(-c2c(F)cc(Cl)cc2-c2ccc3c(c2)CC[C@@H]3NC(=O)C2(N)CC2)no1 [Example 24, 1-Amino-cyclopropanecarboxylic acid{(S)-5-[5-chloro-3-fluoro-2-(5-methyl-[1,2,4]oxadiazol-3-yl)-phenyl]-indan-1-yl}-amide] |
